{"source": "patent US6689758B1", "about": "“Gene therapy method” (SmithKline Beecham Corporation, priority 1998, dated 2004)", "key": {"[1]": {"system": "rat excisional wounds", "assay": "Rat excisional wound healing model after particle mediated gene transfer", "type": "in vivo, Sprague Dawley rats", "method": "Eighteen male Sprague Dawley rats weighing 250g were anaesthetised under isoflorane in a 2:1 mixture of oxygen/nitrous oxide. Two sites of transfection (8 cm from the skull, 1.5 cm either side of the spine) on the rat dorsum were prepared by firstly clipping the pelt then shaving with a razor. Two transfections were carried out per wound site, 8 mm apart, by accelerating plasmid/gold complexes of either Egr-1 or β-galactosidase into the skin at 350 psi. Total amount of DNA was not less than 1.7 μg per transfection (equalling 3.4 μg per wound). […]\nWound area was determined using image analysis and the healing expressed as a increase in percent of original wound area. Statistical significances of differences between treated and control groups were evaluated using a […] Mann-Whitney test.\nEach wound per time point after dissection was bisected horizontally. […] Using this histological stain, key markers of wound healing was assessed including re-epithelialisation and collagen content and comparisons made between treated and control sections.\nImmunocytochemistry and image analysis was performed in order to quantify the differences seen using routine histology. […] Area and intensity of staining was measured using image analysis and plotted as a graph. Statistical significant differences between treated and control groups were evaluated using a Man-Whitney nonparametric test."}, "[2]": {"system": "human cell co-culture system", "assay": "In vitro angiogenesis co-culture system (tubule formation, PECAM-1 staining)", "type": "cell-based", "details": "20 μM, negative control; 11 days co-culture", "method": "Egr-1 under the control of the hCMV promoter (Houston et al, Arterioscler. Thromb. Vasc. Biol., 19; 281-289, 1999) was transfected into a human cell co-culture system designed to measure angiogenesis in vitro. The angiogenesis kit (TCS Biologicals) was used as described according to the manufacturer's instructions using VEGF protein (2 ng/ml) and suramin (20 μM) as positive and negative controls respectively for angiogenesis.\nOptimisation of transfection in the co-culture system was performed using pGL3 control luciferase (Promega) with 1.0 μg and 0.5 μg CMV-β, gal as a normalising plasmid for transfection control. Two ratios of lipid: DNA (v/w) were used; 2:1 and 4:1 (FIG. 3a.). CMV Egr-1 DNA was transfected at 0.5, 1.0, 1.5 and 2.5 μg per well in triplicate in a 24 well microtitre plate using Mirus Transit reagent (Cambridge Biosciences) at a ratio of 2:1 v/w DNA. VEGF protein positive control and suramin negative control was added to triplicate wells. After 11 days co-culture angiogenesis was determined by staining of cells for the endothelial cell marker PECAM-1 and visualisation using BCIP/NBT substrate.\nRepresentative images of tubule formation using all four doses of Egr-1 expression plasmid together with VEGF (positive control) and suramin (negative control) were captured and processed by image analysis using Quantimet 600 image analyser and associated software. […]"}, "[3]": {"system": "HeLa cells", "assay": "Transient transfection of reporter plasmid pSVSRE5 with pFA-MEK1 into HeLa cells", "type": "cell-based", "details": "co-transfected pFA-MEK1 vs pFA-dbd", "source_text": "We have concentrated on SRE5. The novel SRE 5 with its associated Ets transcription factor binding sites was synthesised as a double stranded oligonucleotide and inserted into the Nhe I site upstream of a SV40 minimal promoter vector (pSV40). SRE5 (SEQ ID NOS:7-8) has the sequence: […]\nThe resulting reporter plasmid pSVSRE5 was transiently transfected into HeLa cells together with plasmids pFA-dbd (construct encoding the Gal4 DNA binding domain (dbd) ) or pFA-MEK1 (construct encoding a fusion protein of the Gal4 DNA binding domain (dbd) and the kinase domain of the MAP kinase kinase MEK1). The Gal4-MEK1 fusion protein is constitutively active and phosphorylates Elk1 and SRF, bound to SRE5."}}}
{"molecule": "β-galactosidase", "values": [{"measurement": "collagen I immunostaining (image analysis)", "setting": "[1]; 2 days post wounding, β-galactosidase compared to Egr-1", "result": "significantly more collagen"}, {"measurement": "wounds with complete re-epithelialisation", "setting": "[1]; 6 days post wounding", "result": 0, "unit": "%"}]}
{"molecule": "Cc1ccc(C(=O)Nc2ccc(S(=O)(=O)O)c3cc(S(=O)(=O)O)cc(S(=O)(=O)O)c23)cc1NC(=O)c1cccc(NC(=O)Nc2cccc(C(=O)Nc3cc(C(=O)Nc4ccc(S(=O)(=O)O)c5cc(S(=O)(=O)O)cc(S(=O)(=O)O)c45)ccc3C)c2)c1", "note": "[suramin]", "values": [{"measurement": "tubule formation", "setting": "[2]", "result": "Decreased tubule formation"}]}
{"molecule": "SRE5: novel SRE 5 with associated Ets sites, double stranded oligonucleotide inserted upstream of SV40 minimal promoter (reporter plasmid pSVSRE5) (nucleic acid, double-stranded insert cloned upstream of SV40 minimal promoter in reporter plasmid, further chemistry not given here) chain 1: AGGCTGCGACCCGGAAATGCCATATAAGAAGCAGGAAGGATCCCCCCGCCGG chain 2: AGCCGGCGGGGGGATCCTTCCTGCTTCTTATATGGCATTTCCGGGTCGCAGC", "values": [{"measurement": "activation by the presence of MEK1 (reporter)", "setting": "[3]", "result": 3, "unit": "fold"}]}
